Results published in patent US20110263454A1, “Methods of Identifying Functional Characteristics of Promoters, Transcription Modifying Proteins and Transcription Modulating Agents” (Salk Institute for Biological Studies, priority 2008, published 2011).

Legend:
hMyoD promoter = experiment: NHR-promoter luciferase screen, hMyoD promoter; format: cell-based, human; conditions: for Luc. act., normalized to lacZ / Normalized Luc. act., normalized to control: MyoD promoter reporter, co-transfected HR, without or with its ligand; for Normalized Luc. act., normalized to control: relative to control; for luciferase activity normalized to lacZ activity and to a control, hMyoD: hMyoD promoter-luciferase, CV-1 cells, NHR +/- ligand, control = 1.00
Method: (§1) The use, feasibility, and reproducibility of the functional NHR-promoter screen in a 48-well format have been tested validated. Briefly, there were co-expressed 50 ng of each NHR/NHR homodimer or NHR/RXR heterodimer with 100 ng promoter/luciferase construct and 50 ng of LacZ (as a control for transfection efficiency) in CV-1 cells using Fugene HD (Roche) as a transfection reagent (alternatively or additionally, a CMV-YFP construct can be used as a transfection control). Each of the nuclear hormone receptors that were used in these experiments was cloned into a pcDNA3.1 vector and comprised a C-terminally linked V5H6 tag. Twenty-four hours after transfection, appropriate ligands were added, where applicable, (see Table 5 for various ligands and concentrations and after 48 hrs, samples were assayed for luciferase and LacZ activity. To measure for luciferase activity 15 ul of sample was added to 30 ul of luciferase buffer (20 mM tricine, 1.07 mM MgCarbonate, 2.67 mM MgSulfate, 0.1 mM Naz-EDTA, 5 mM DTT, 5 mM ATP, 0.15 mg/ml CoA, 0.5 mM Luciferin), mixed briefly, and run in a Perkin Elmer Victor 5 luminometer. Thus, the functional NHR-promoter screen was used to observe the transcriptional activity of 29 promoters from various physiological pathways including inflammation, lipid and sugar metabolism, cholesterol transport, xenobiotic metabolism, and circadian rhythm.
(§2) The promoters that facilitate transcription of the indicated gene products that were tested using the protocols described herein are listed in the first row of the table. The nuclear hormone receptors and, where applicable, ligands that were assayed for their transcriptional effects on the promoters are listed in the first column of the table. The data represent the luciferase activity of each sample normalized to both the lacZ activity of that sample and to a control, e.g., no NHR or ligand, as customary in the art. As described previously, these normalizations allow the transcriptional activity of each reporter cell to be compared to other samples.
(§3) Tables 7-40 show the transcriptional effects of the hormone receptors, and, where applicable, ligands (orphan receptors are screened without ligand), on each individual promoter. […] The control data of each table are shown in their last rows.

hPOMC promoter = experiment: NHR-promoter luciferase screen, hPOMC promoter; format: cell-based, human; conditions: for Luc. act., normalized to lacZ / Normalized Luc. act., normalized to control: hPOMC promoter, HR/ligand component; for hPOMC promoter reporter activity: transcription factor +/- ligand, control = 1.00; for luciferase/LacZ, hPOMC (selected results): hPOMC promoter-luciferase, NHR +/- ligand, control = 1.0
Method: as §1, §2, §3

SREBP1c promoter = experiment: NHR-promoter luciferase screen, SREBP1c promoter; format: cell-based, mouse; conditions: for Luc. act., normalized to lacZ / Normalized Luc. act., normalized to control: SREBP1c promoter, HR component without or with ligand; for mSREBP1-c promoter reporter activity: transcription factor +/- ligand, control = 1.00
Method: as §1, §2, §3

mDio2 promoter = experiment: NHR-promoter luciferase screen, mDio2 promoter; format: cell-based, mouse; conditions: for Luc. act., normalized to lacZ / Normalized Luc. act., normalized to control: Dio2, HR component without or with its ligand; for mDio2 promoter reporter activity: transcription factor +/- ligand, control = 1.00
Method: as §1, §2, §3

hTNFa promoter = experiment: NHR-promoter luciferase screen, hTNFa promoter; format: cell-based, human; conditions: for Luc. act., normalized to lacZ / Normalized Luc. act., normalized to control: TNFa promoter, HR component without or with ligand; for hTNFa promoter reporter activity: transcription factor +/- ligand, control = 1.00
Method: as §1, §2, §3

mUCP1 promoter = experiment: NHR-promoter luciferase screen, mUCP1 promoter; format: cell-based, mouse; conditions: for Luc. act., normalized to lacZ / Normalized Luc. act., normalized to control: mUCP1 promoter reporter, co-transfected HR, with or without its ligand; for Normalized Luc. act., normalized to control: relative to control; for luciferase activity normalized to lacZ activity and to a control, mUCP!: mUCP! promoter-luciferase, CV-1 cells, NHR +/- ligand, control = 1.00
Method: as §1, §2, §3

Substance	Luc. act., normalized to lacZ (hMyoD promoter)	Normalized Luc. act., normalized to control (hMyoD promoter)	luciferase activity normalized to lacZ activity and to a control, hMyoD (hMyoD promoter)	Luc. act., normalized to lacZ (hPOMC promoter)	Normalized Luc. act., normalized to control (hPOMC promoter)	hPOMC promoter reporter activity (hPOMC promoter)	Luc. act., normalized to lacZ (SREBP1c promoter)	Normalized Luc. act., normalized to control (SREBP1c promoter)	mSREBP1-c promoter reporter activity (SREBP1c promoter)	Luc. act., normalized to lacZ (mDio2 promoter)	Normalized Luc. act., normalized to control (mDio2 promoter)	mDio2 promoter reporter activity (mDio2 promoter)	Luc. act., normalized to lacZ (hTNFa promoter)	Normalized Luc. act., normalized to control (hTNFa promoter)	hTNFa promoter reporter activity (hTNFa promoter)	Luc. act., normalized to lacZ (mUCP1 promoter)	Normalized Luc. act., normalized to control (mUCP1 promoter)	luciferase activity normalized to lacZ activity and to a control, mUCP! (mUCP1 promoter)	luciferase/LacZ, hPOMC (selected results) (hPOMC promoter)	regulation of the SREBP1c promoter (SREBP1c promoter; FIG. 2b, in words)
PNR: Photoreceptor-specific Nuclear Receptor (NR2E3), cDNA driver	37.1	0.6	0.59	1.5	0.3	0.34	265.7	0.8	0.82	14.0	0.9	0.89	558.4	0.6	0.57	1.7	0.4	0.37		
NR4a1: NR4a1 (NR4A1; NUR77), nuclear hormone receptor cDNA driver	152.5	2.4	2.41	15.3	3.6	3.57	408.2	1.3	1.27	21.8	1.4	1.39	1575.8	1.6	1.60	7.6	1.7	1.70	3.6	
TLX: Tailless (homolog of drosophila) (NR2E1), cDNA driver	31.3	0.5	0.49	2.6	0.6	0.60	352.4	1.1	1.09	9.5	0.6	0.60	1085.1	1.1	1.10	2.8	0.6	0.63		
PPARg: Peroxisome proliferator activated receptor γ (NR1C3), cDNA driver	74.5	1.2	1.18	2.8	0.6	0.65	795.8	2.5	2.47	35.5	2.3	2.26	1345.4	1.4	1.37	2.9	0.7	0.66	0.6	
GR: Glucocorticoid Receptor (NR3C1), cDNA driver	26.4	0.4	0.42	0.7	0.2	0.16	150.3	0.5	0.47	13.2	0.8	0.84	463.3	0.5	0.47	1.9	0.4	0.42	0.2	
AR: Androsterone Receptor (NR3C4), cDNA driver	57.5	0.9	0.91	1.8	0.4	0.42	418.4	1.3	1.30	19.7	1.3	1.26	1019.9	1.0	1.04	3.3	0.7	0.74		
SF-1: Steroidogenic Factor 1 (NR5A1, SF1), cDNA driver	151.2	2.4	2.39	13.1	3.1	3.06	916.0	2.8	2.84	63.2	4.0	4.02	1900.9	1.9	1.93	11.3	2.5	2.54		
VDR: Vitamin D Receptor (NR1I1), cDNA driver	52.8	0.8	0.83	3.8	0.9	0.90	460.1	1.4	1.43	23.7	1.5	1.51	986.3	1.0	1.00	2.8	0.6	0.63		
RXRa: Retinoic X Receptor α (NR2B1), cDNA driver	51.2	0.8	0.81	2.6	0.6	0.61	521.9	1.6	1.62	18.6	1.2	1.18	954.8	1.0	0.97	2.9	0.7	0.66		
LXRa: Liver X Receptor α (NR1H3), cDNA driver	60.1	0.9	0.95	6.8	1.6	1.58	5951.9	18.5	18.48	19.0	1.2	1.21	994.6	1.0	1.01	3.1	0.7	0.69		specific and strong activation
PPARa: Peroxisome proliferator activated receptor α (NR1C1), cDNA driver	63.7	1.0	1.01	2.4	0.6	0.57	935.6	2.9	2.90	23.0	1.5	1.46	1107.9	1.1	1.13	2.6	0.6	0.59		
